Experimental data reported in paper PMC8624523, “Novel GPR120 Agonists with Improved Pharmacokinetic Profiles for the Treatment of Type 2 Diabetes” (Molecules, 2021).
Like-named read-outs stand apart in the source and are kept apart here.

What was measured:
human GPR120 = molecular target: T1, human GPR120 (Homo sapiens, UniProt Q5NUL3); assay: Ca2+ influx assay in CHO cells stably expressing human GPR120; assay type: cell-based; conditions: CHO cells expressing human GPR120, Ca2+ signal, mean of three determinations
T1 construct: expressed in transfected cells
T1 sequence (Q5NUL3 1-361): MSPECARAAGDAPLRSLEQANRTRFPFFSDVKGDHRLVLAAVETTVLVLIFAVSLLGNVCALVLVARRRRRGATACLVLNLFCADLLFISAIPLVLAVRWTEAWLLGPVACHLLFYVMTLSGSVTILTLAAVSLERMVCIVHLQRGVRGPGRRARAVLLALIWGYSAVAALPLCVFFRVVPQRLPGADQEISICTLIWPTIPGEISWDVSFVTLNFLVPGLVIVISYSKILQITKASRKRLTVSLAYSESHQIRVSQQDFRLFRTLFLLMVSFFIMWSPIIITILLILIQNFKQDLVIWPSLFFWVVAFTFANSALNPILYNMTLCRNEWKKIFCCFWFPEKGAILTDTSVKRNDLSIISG
Experimental: Chinese hamster ovary (CHO) cells stably expressing human GPR120 were suspended in growth media at a concentration of 1 × 10^6 per mL. […] The cell plate was removed from the incubator, the medium was gently discarded, and the wells were washed with 100 μL of Hank’s balanced salt solution (HBSS) per well. The cells were then incubated in HBSS containing fluorescent calcium indicator Fluo-4 AM (2.5 μg/mL) and probenecid (2.5 mmol/L) for 90 min. […] The test compounds at various concentrations were added to the cells, and intracellular Ca^2+ concentrations were measured using FlexStation3 Molecular Devices. The GPR120 agonistic activities of the test compounds were expressed as A/B (increase in the intracellular Ca^2+ concentration (A) in the test compound-treated cells and (B) in vehicle-treated cells). The EC50 value of each compound was calculated using Prism software (version 5.0; GraphPad Software, San Diego, CA, USA).

hGPR40 [1] = molecular target: T2, hGPR40 (Homo sapiens, UniProt O14842); assay: Calcium influx assay on hGPR40-expressing CHO cells; assay type: cell-based; conditions: for Selectivity: GPR40 EC50 over GPR120 EC50; for EC50: hGPR40-expressing CHO cells, calcium influx, mean of three determinations, read-out: GPR40 (EC50)
T2 construct: expressed in transfected cells; host or cells: CHO cells

hGPR120 = tested on: hGPR120; design: method as in PMID 22519963, PMID 29100735, PMID 28642104, PMID 28947942, PMID 28374589; conditions: Figure 1, literature values; cited from earlier work
hGPR40 [2] = molecular target: T2, hGPR40; design: method as in PMID 22519963, PMID 29100735, PMID 28642104, PMID 28947942, PMID 28374589; conditions: cited from earlier work
[3] = Pharmacokinetic analysis in C57BL/6 mice after gavage administration; assay type: in vivo; conditions: male, mouse, plasma, po, 10 mg/kg gavage, 0.5% MC; for AUC / Cmax / half-life: mean ± SEM of four mice
Experimental: Plasma was collected with a pipette and the proteins in the plasma were precipitated with two volumes of acetonitrile containing an internal standard. This was followed by centrifugation at 15.680 g for 10 min after vortexing for 5 min. The supernatant was diluted with acetonitrile and 10 μL of supernatant was analyzed by Waters LC-PDA-MS/MS to determine plasma drug levels. Pharmacokinetic parameters were determined using the mean data from four mice at each time point. Statistical analysis of the data was performed using the DAS 2.1.1 statistical software program (BioVoice, Shanghai, China).

normal ICR mice = assay: Oral glucose tolerance test in normal ICR mice; assay type: in vivo; conditions: fasted ICR mice
Experimental: Male ICR starved overnight (12 h) were weighed and randomly divided into six groups (eight mice per group). […] Blood samples were collected via the tail tip before drug administration (-30 min), before glucose loading (time 0), and 15, 30, 60, and 120 min after glucose loading. Blood glucose levels were measured using blood glucose test strips (Sannuo GA-3 type, Changsha, China).

DIO mice = assay: Anti-hyperglycemic effects (oGTT) in diet-induced obese (DIO) mice; assay type: in vivo, C57BL/6 mice; conditions: fasted DIO mice, 20 mg/kg gavage 30 min before oral glucose 2 g/kg
Description: After 1 week of adaptation, male C57BL/6 mice weighing 18–22 g, were fed a high-fat diet (45% calories from fat, from Mediscience Ltd., Yangzhou, China) ad libitum for an additional 8 weeks to induce insulin resistance. […] Blood samples were collected and measured in accordance with the oral glucose tolerance test in normal ICR mice.

T2 sequence (O14842 whole entry): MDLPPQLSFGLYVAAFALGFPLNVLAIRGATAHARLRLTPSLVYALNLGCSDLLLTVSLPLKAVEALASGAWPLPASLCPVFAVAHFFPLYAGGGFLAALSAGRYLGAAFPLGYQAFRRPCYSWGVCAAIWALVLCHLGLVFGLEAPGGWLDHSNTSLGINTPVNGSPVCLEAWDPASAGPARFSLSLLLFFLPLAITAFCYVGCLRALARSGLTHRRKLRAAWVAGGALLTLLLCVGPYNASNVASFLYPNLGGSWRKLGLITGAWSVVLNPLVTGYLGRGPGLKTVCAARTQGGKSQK

Structure (SMILES) | EC50 (human GPR120) [nM] | melting point [°C] | further results
Cc1ccc(-c2ccc(F)cc2COc2ccc(CC(C)C(=O)O)cc2)cc1 (stereo not drawn) [Compound 1f, 3-(4-((4-Fluoro-4′-methyl-[1,1′-biphenyl]-2-yl)methoxy)phenyl)-2-methylpropanoic acid] | 146 | 103 to 104 | –
Cc1ccc(-c2ccc(F)cc2COc2ccc(C(C)CC(=O)O)cc2)cc1 (stereo not drawn) [Compound 2f, 3-(4-((4-Fluoro-4′-methyl-[1,1′-biphenyl]-2-yl)methoxy)phenyl)butanoic acid] | 52.8 | 100 to 101 | Selectivity (hGPR40 [1]): 1373; EC50 (hGPR40 [1]): 72500 nM
O=C(O)CCc1cc(F)c(OCc2c(-c3ccc(Cl)cc3F)nsc2C(F)(F)F)c(F)c1 [Compound 3] | – | – | EC50 (hGPR120): 42 nM; EC50 (hGPR40 [2]; Figure 1, literature value): > 5000 nM
Cc1ccc(-n2nc(C)c3cnc(-c4ccc([C@H]5C[C@@H]5C(=O)O)cc4)cc32)nc1 [Compound 4] | – | – | EC50 (hGPR120): 740 nM; EC50 (hGPR40 [2]; Figure 1, literature values): > 100000 nM
CO[C@H]1C[C@H](Oc2cc(F)c(F)c(-c3c(F)cc(OCCCC(=O)O)cc3F)c2)C1 [Compound 5] | – | – | EC50 (hGPR120): 93 nM; EC50 (hGPR40 [2]; Figure 1, literature values): > 100000 nM
O=S1(=O)c2ccccc2CN1c1cc(F)cc(Oc2ccccn2)c1 [Compound 6] | – | – | EC50 (hGPR120): 123 nM; hGPR40 activity (hGPR40 [2]; at 100 uM, Figure 1, literature value): inactive

Further lines, with some results ahead:

EC50 (human GPR120) [nM] | melting point [°C] | Structure (SMILES) | further results
90.2 | 116 to 117 | Cc1ccc(-c2ccc(F)cc2COc2ccc(CCC(=O)O)c(C)c2)cc1 [Compound 3f, 3-(4-((4-Fluoro-4′-methyl-[1,1′-biphenyl]-2-yl)methoxy)-2-methylphenyl)propanoic acid] | –
110 | 101 to 102 | Cc1ccc(-c2ccc(F)cc2COc2ccc(CCC(=O)O)c(F)c2)cc1 [Compound 4f, 3-(2-Fluoro-4-((4-fluoro-4′-methyl-[1,1′-biphenyl]-2-yl)methoxy)phenyl)propanoic acid] | –
103 | 119 to 120 | Cc1ccc(-c2ccc(F)cc2COc2ccc(OCC(=O)O)cc2)cc1 [Compound 5f, 2-(4-((4-Fluoro-4′-methyl-[1,1′-biphenyl]-2-yl)methoxy)phenoxy)acetic acid] | –
72.7 | 115 to 116 | Cc1ccc(-c2ccc(F)cc2COc2ccc(OCC(=O)O)c(C)c2)cc1 [Compound 6f, 2-(4-((4-Fluoro-4′-methyl-[1,1′-biphenyl]-2-yl)methoxy)-2-methylphenoxy)acetic acid] | Selectivity (hGPR40 [1]): 810; EC50 (hGPR40 [1]): 58900 nM
106 | 109 to 110 | Cc1ccc(-c2ccc(F)cc2COc2ccc(OCC(=O)O)c(F)c2)cc1 [Compound 7f, 2-(2-Fluoro-4-((4-fluoro-4′-methyl-[1,1′-biphenyl]-2-yl)methoxy)phenoxy)acetic acid] | –
113 | 117 to 118 | CC(CC(=O)O)c1ccc(OCC(=O)N2CCCc3ccccc32)cc1 (stereo not drawn) [Compound 11a, 3-(4-(2-(3,4-Dihydroquinolin-1(2H)-yl)-2-oxoethoxy)phenyl)butanoic acid] | –
71.2 | 115 to 116 | Cc1ccc2c(c1)CCCN2C(=O)COc1ccc(C(C)CC(=O)O)cc1 (stereo not drawn) [Compound 11b, 3-(4-(2-(6-Methyl-3,4-dihydroquinolin-1(2H)-yl)-2-oxoethoxy)phenyl)butanoic acid] | Selectivity (hGPR40 [1]): 1159; EC50 (hGPR40 [1]): 82500 nM; Tmax [3]: 0.5 h; AUC [3]: 9050 ± 435 ng·h/mL; Cmax [3]: 2530 ± 115 ng/mL; half-life [3]: 1.78 ± 0.42 h; anti-hyperglycemic effects compared with TUG-891 (normal ICR mice; 30 mg/kg, at 30 min after the oral glucose challenge): better than TUG-891; hypoglycemia (normal ICR mice; dose of 100 mg/kg by gavage): no hypoglycemia was observed; blood glucose during oGTT (normal ICR mice; gavage 20 mg/kg 30 min before oral glucose 3.0 g/kg): significantly reduced blood glucose; blood glucose levels during oGTT (normal ICR mice; gavage 10, 20, 30 and 100 mg/kg 30 min before oral glucose 3.0 g/kg): lowered the blood glucose levels in a dose-dependent manner; anti-diabetic effects (blood glucose during oGTT) (DIO mice): equivalent to TUG-891; insulin levels at 30 min after oral administration of glucose (DIO mice): significantly increased insulin levels
99.6 | 141 to 142 | COc1ccc2c(c1)CCCN2C(=O)COc1ccc(C(C)CC(=O)O)cc1 (stereo not drawn) [Compound 11c, 3-(4-(2-(6-Methoxy-3,4-dihydroquinolin-1(2H)-yl)-2-oxoethoxy)phenyl)butanoic acid] | –
187 | 124 to 130 | CC(CC(=O)O)c1ccc(OCC(=O)N2CCCc3cc(F)ccc32)cc1 (stereo not drawn) [Compound 11d, 3-(4-(2-(6-Fluoro-3,4-dihydroquinolin-1(2H)-yl)-2-oxoethoxy)phenyl)butanoic acid] | –
255 | 138 to 139 | Cc1cc(OCC(=O)N2CCCc3ccccc32)ccc1OCC(=O)O [Compound 11e, 2-(4-(2-(3,4-Dihydroquinolin-1(2H)-yl)-2-oxoethoxy)-2-methylphenoxy)acetic acid] | –
204 | 152 to 153 | Cc1cc(OCC(=O)N2CCCc3cc(F)ccc32)ccc1OCC(=O)O [Compound 11f, 2-(4-(2-(6-Fluoro-3,4-dihydroquinolin-1(2H)-yl)-2-oxoethoxy)-2-methylphenoxy)acetic acid] | –
83.4 | 147 to 148 | Cc1ccc2c(c1)CCCN2C(=O)COc1ccc(OCC(=O)O)c(C)c1 [Compound 11g, 2-(2-Methyl-4-(2-(6-methyl-3,4-dihydroquinolin-1(2H)-yl)-2-oxoethoxy)phenoxy)acetic acid] | Selectivity (hGPR40 [1]): 1036; EC50 (hGPR40 [1]): 86400 nM; Tmax [3]: 0.5 h; AUC [3]: 6710 ± 467 ng·h/mL; Cmax [3]: 1850 ± 102 ng/mL; half-life [3]: 1.52 ± 0.37 h
146 | 141 to 142 | COc1ccc2c(c1)CCCN2C(=O)COc1ccc(OCC(=O)O)c(C)c1 [Compound 11h, 2-(4-(2-(6-Methoxy-3,4-dihydroquinolin-1(2H)-yl)-2-oxoethoxy)-2-methylphenoxy)acetic acid] | –
